Assay results: paper PMC8934569 (Cancer chemotherapy and pharmacology, 2021)

Columns and labels:
[1] = Veliparib plasma pharmacokinetics; type: in vivo, human
[2] = system: γH2AX in circulating tumor cells (CTCs); experiment: Total CTCs and γH2AX-positive CTCs; type: in vivo, human; conditions: veliparib and AC
metastatic malignancy = experiment: Tumor response by RECIST version 1.1; type: in vivo, human
[3] = Drug-related adverse events graded by NCI CTCAE version 4.0; type: in vivo, human
[4] = system: MX-1 BRCA1 deficient breast cancer model; conditions: cyclophosphamide 12.5 mg/kg/day on days 20, 14, and 27 and veliparib 25 mg/kg/day; cited from earlier work
[5] = Group 1 N=31: veliparib Days 1-4 + cyclophosphamide Day 3, all tumor types
[6] = Group 2 N=22: veliparib Days 1-4 + AC Day 3, all tumor types
[7] = Group 3 N=14: veliparib 100 mg every 12 h Days 1-7 + AC Day 1
[8] = Group 4 N=13: veliparib 100 mg every 12 h Days 1-14 + AC Day 1
[9] = Group 1 N=31: veliparib Days 1-4 + cyclophosphamide Day 3
[10] = Group 2 N=22: veliparib Days 1-4 + AC Day 3
[11] = Groups 3 and 4 N=27: veliparib Days 1-7 or 1-14 + AC Day 1

Question: Which results are given for `C[C@]1(c2nc3c(C(N)=O)cccc3[nH]2)CCCN1` [veliparib, 2-[(R)-2-methylpyrrolidin-2-yl]-1H-benzimidazole-4-carboxamide]?
Answer: AUC0-7 on C1D3 (with combination therapy) compared to C1D1 (alone) ([1]; Groups 1 and 2): significantly higher; Cmax on C1D3 (with combination therapy) compared to C1D1 (alone) ([1]; Groups 1 and 2): comparable; Dose proportionality of Cmax and AUC0-7 ([1]; veliparib administered alone, 50 to 200 mg dose range, C1D1): approximately dose-proportional increases; Change in percentage of γH2AX-positive CTCs from Day 1 to Day 14 ([2]; groups 3 and 4 combined, p =0.0006): significant increase; Change in CTCs from Day 1 to Day 7 ([2]; groups 3 and 4 combined, p =0.0007): significant decrease; Change in CTCs from Day 1 to Day 14 ([2]; groups 3 and 4 combined, p =0.0009): significant decrease; Change in percentage of γH2AX-positive CTCs from Day 1 to Day 7 ([2]; groups 3 and 4 combined, p =0.016): significant increase; Patients in whom γH2AX-positive CTCs ≥ 50% persisted to day 14 ([2]; groups 3 and 4, cycle 1): 10 patients; Overall clinical benefit rate (CBR) (metastatic malignancy; Group 1 (veliparib + cyclophosphamide)): 13%; Complete response (best response achieved) (metastatic malignancy; [5]): 0 (0) n (%); Stable disease ≥3 months (best response achieved) (metastatic malignancy; [5]): 3 (10) n (%); Complete response (best response achieved) (metastatic malignancy; [6]): 0 (0) n (%); Partial response (best response achieved) (metastatic malignancy; [6]): 4 (18) n (%); Stable disease ≥3 months (best response achieved) (metastatic malignancy; [6]): 5 (23) n (%); Complete response (best response achieved) (metastatic malignancy; [7]): 0 (0) n (%); Partial response (best response achieved) (metastatic malignancy; [7]): 2 (14) n (%); Stable disease ≥3 months (best response achieved) (metastatic malignancy; [7]): 4 (29) n (%); Complete response (best response achieved) (metastatic malignancy; [8]): 0 (0) n (%); Partial response (best response achieved) (metastatic malignancy; [8]): 5 (38) n (%); Stable disease ≥3 months (best response achieved) (metastatic malignancy; [8]): 1 (8) n (%); Objective response (metastatic malignancy; V and AC treated groups (11/49)): 22%; Overall clinical benefit rate (metastatic malignancy; all groups (25/80)): 31%; Patients with a BRCA1/2 mutation noted to have PRs (metastatic malignancy; among the 59 metastatic breast cancer patients treated): 5 patients; Anemia, All Grades [3, 9]: 8 (26) n (%); Anemia, Gr 3 [3, 9]: 2 (6) n (%); Anemia, Gr 4 [3, 9]: 0 (0) n (%); Anorexia, All Grades [3, 9]: 0 (0) n (%); Anorexia, Gr 3 [3, 9]: 0 (0) n (%); Anorexia, Gr 4 [3, 9]: 0 (0) n (%); Dehydration, All Grades [3, 9]: 0 (0) n (%); Dehydration, Gr 3 [3, 9]: 0 (0) n (%); Dehydration, Gr 4 [3, 9]: 0 (0) n (%); Fatigue, All Grades [3, 9]: 12 (39) n (%); Fatigue, Gr 3 [3, 9]: 1 (3) n (%); Fatigue, Gr 4 [3, 9]: 0 (0) n (%); Febrile neutropenia, All Grades [3, 9]: 1 (3) n (%); Febrile neutropenia, Gr 3 [3, 9]: 1 (3) n (%); Febrile neutropenia, Gr 4 [3, 9]: 0 (0) n (%); Hyponatremia, All Grades [3, 9]: 0 (0) n (%); Hyponatremia, Gr 3 [3, 9]: 0 (0) n (%); Hyponatremia, Gr 4 [3, 9]: 0 (0) n (%); Hypophosphatemia, All Grades [3, 9]: 1 (3) n (%); Hypophosphatemia, Gr 3 [3, 9]: 1 (3) n (%); Hypophosphatemia, Gr 4 [3, 9]: 0 (0) n (%); Hypotension, All Grades [3, 9]: 1 (3) n (%); Hypotension, Gr 3 [3, 9]: 1 (3) n (%); Hypotension, Gr 4 [3, 9]: 0 (0) n (%); Lymphocyte count decreased, All Grades [3, 9]: 8 (26) n (%); Lymphocyte count decreased, Gr 3 [3, 9]: 4 (13) n (%); Lymphocyte count decreased, Gr 4 [3, 9]: 2 (6) n (%); Nausea, All Grades [3, 9]: 5 (16) n (%); Nausea, Gr 3 [3, 9]: 0 (0) n (%); Nausea, Gr 4 [3, 9]: 0 (0) n (%); Neutrophil count decreased, All Grades [3, 9]: 11 (35) n (%); Neutrophil count decreased, Gr 3 [3, 9]: 4 (13) n (%); Neutrophil count decreased, Gr 4 [3, 9]: 3 (10) n (%); Platelet count decreased, All Grades [3, 9]: 5 (16) n (%); Platelet count decreased, Gr 3 [3, 9]: 1 (3) n (%); Platelet count decreased, Gr 4 [3, 9]: 1 (3) n (%); Sepsis, All Grades [3, 9]: 0 (0) n (%); Sepsis, Gr 3 [3, 9]: 0 (0) n (%); Sepsis, Gr 4 [3, 9]: 0 (0) n (%); Vomiting, All Grades [3, 9]: 5 (16) n (%); Vomiting, Gr 3 [3, 9]: 0 (0) n (%); Vomiting, Gr 4 [3, 9]: 0 (0) n (%); White blood cell decreased, All Grades [3, 9]: 9 (29) n (%); White blood cell decreased, Gr 3 [3, 9]: 6 (19) n (%); White blood cell decreased, Gr 4 [3, 9]: 1 (3) n (%); Anemia, All Grades [3, 10]: 16 (73) n (%); Anemia, Gr 3 [3, 10]: 4 (18) n (%); Anemia, Gr 4 [3, 10]: 0 (0) n (%); Anorexia, All Grades [3, 10]: 5 (23) n (%); Anorexia, Gr 3 [3, 10]: 0 (0) n (%); Anorexia, Gr 4 [3, 10]: 0 (0) n (%); Dehydration, All Grades [3, 10]: 1 (5) n (%); Dehydration, Gr 3 [3, 10]: 1 (5) n (%); Dehydration, Gr 4 [3, 10]: 0 (0) n (%); Fatigue, All Grades [3, 10]: 16 (73) n (%); Fatigue, Gr 3 [3, 10]: 0 (0) n (%); Fatigue, Gr 4 [3, 10]: 0 (0) n (%); Febrile neutropenia, All Grades [3, 10]: 3 (14) n (%); Febrile neutropenia, Gr 3 [3, 10]: 2 (9) n (%); Febrile neutropenia, Gr 4 [3, 10]: 2 (9) n (%); Hyponatremia, All Grades [3, 10]: 1 (5) n (%); Hyponatremia, Gr 3 [3, 10]: 1 (5) n (%); Hyponatremia, Gr 4 [3, 10]: 0 (0) n (%); Hypophosphatemia, All Grades [3, 10]: 0 (0) n (%); Hypophosphatemia, Gr 3 [3, 10]: 0 (0) n (%); Hypophosphatemia, Gr 4 [3, 10]: 0 (0) n (%); Hypotension, All Grades [3, 10]: 0 (0) n (%); Hypotension, Gr 3 [3, 10]: 0 (0) n (%); Hypotension, Gr 4 [3, 10]: 0 (0) n (%); Lymphocyte count decreased, All Grades [3, 10]: 13 (59) n (%); Lymphocyte count decreased, Gr 3 [3, 10]: 10 (45) n (%); Lymphocyte count decreased, Gr 4 [3, 10]: 2 (9) n (%); Nausea, All Grades [3, 10]: 10 (45) n (%); Nausea, Gr 3 [3, 10]: 0 (0) n (%); Nausea, Gr 4 [3, 10]: 0 (0) n (%); Neutrophil count decreased, All Grades [3, 10]: 19 (86) n (%); Neutrophil count decreased, Gr 3 [3, 10]: 10 (45) n (%); Neutrophil count decreased, Gr 4 [3, 10]: 13 (59) n (%); Platelet count decreased, All Grades [3, 10]: 14 (64) n (%); Platelet count decreased, Gr 3 [3, 10]: 4 (18) n (%); Platelet count decreased, Gr 4 [3, 10]: 2 (9) n (%); Sepsis, All Grades [3, 10]: 1 (5) n (%); Sepsis, Gr 3 [3, 10]: 0 (0) n (%); Sepsis, Gr 4 [3, 10]: 1 (5) n (%); Vomiting, All Grades [3, 10]: 3 (14) n (%); Vomiting, Gr 3 [3, 10]: 0 (0) n (%); Vomiting, Gr 4 [3, 10]: 0 (0) n (%); White blood cell decreased, All Grades [3, 10]: 21 (95) n (%); White blood cell decreased, Gr 3 [3, 10]: 11 (50) n (%); White blood cell decreased, Gr 4 [3, 10]: 14 (64) n (%); Anemia, All Grades [3, 11]: 18 (67) n (%); Anemia, Gr 3 [3, 11]: 11 (41) n (%); Anemia, Gr 4 [3, 11]: 1 (4) n (%); Anorexia, All Grades [3, 11]: 0 (0) n (%); Anorexia, Gr 3 [3, 11]: 0 (0) n (%); Anorexia, Gr 4 [3, 11]: 0 (0) n (%); Dehydration, All Grades [3, 11]: 0 (0) n (%); Dehydration, Gr 3 [3, 11]: 0 (0) n (%); Dehydration, Gr 4 [3, 11]: 0 (0) n (%); Fatigue, All Grades [3, 11]: 4 (15) n (%); Fatigue, Gr 3 [3, 11]: 0 (0) n (%); Fatigue, Gr 4 [3, 11]: 0 (0) n (%); Febrile neutropenia, All Grades [3, 11]: 3 (11) n (%); Febrile neutropenia, Gr 3 [3, 11]: 3 (11) n (%); Febrile neutropenia, Gr 4 [3, 11]: 0 (0) n (%); Hyponatremia, All Grades [3, 11]: 0 (0) n (%); Hyponatremia, Gr 3 [3, 11]: 0 (0) n (%); Hyponatremia, Gr 4 [3, 11]: 0 (0) n (%); Hypophosphatemia, All Grades [3, 11]: 0 (0) n (%); Hypophosphatemia, Gr 3 [3, 11]: 0 (0) n (%); Hypophosphatemia, Gr 4 [3, 11]: 0 (0) n (%); Hypotension, All Grades [3, 11]: 0 (0) n (%); Hypotension, Gr 3 [3, 11]: 0 (0) n (%); Hypotension, Gr 4 [3, 11]: 0 (0) n (%); Lymphocyte count decreased, All Grades [3, 11]: 25 (93) n (%); Lymphocyte count decreased, Gr 3 [3, 11]: 23 (85) n (%); Nausea, All Grades [3, 11]: 6 (22) n (%); Nausea, Gr 3 [3, 11]: 0 (0) n (%); Nausea, Gr 4 [3, 11]: 0 (0) n (%); Neutrophil count decreased, All Grades [3, 11]: 21 (78) n (%); Neutrophil count decreased, Gr 4 [3, 11]: 19 (70) n (%); Platelet count decreased, All Grades [3, 11]: 19 (70) n (%); Platelet count decreased, Gr 3 [3, 11]: 7 (26) n (%); Platelet count decreased, Gr 4 [3, 11]: 6 (22) n (%); Sepsis, All Grades [3, 11]: 0 (0) n (%); Sepsis, Gr 3 [3, 11]: 0 (0) n (%); Sepsis, Gr 4 [3, 11]: 0 (0) n (%); Vomiting, All Grades [3, 11]: 4 (15) n (%); Vomiting, Gr 3 [3, 11]: 0 (0) n (%); Vomiting, Gr 4 [3, 11]: 0 (0) n (%); White blood cell decreased, All Grades [3, 11]: 24 (89) n (%); White blood cell decreased, Gr 3 [3, 11]: 21 (78) n (%); White blood cell decreased, Gr 4 [3, 11]: 14 (52) n (%); Patients given growth factor support after cycle 1 ([3]; across the whole trial (n=22 of 80)): 28%; Patients requiring a dose reduction of veliparib ([3]; overall, 80 patients enrolled): 23 patients; Tumor effect of the combination [4]: tumor regression; MTD or recommended phase II dose of veliparib with AC (Phase I dose escalation; Group 2: Days 1-4 with AC 60/600 mg/m^2 Day 3 every 21 days): 100 mg every 12 h; No. of Pts with DLTS (Phase I dose escalation; Group 3 Level 1b: veliparib 100 mg every 12 h Days 1-7 + cyclophosphamide 600 mg/m^2 + doxorubicin 60 mg/m^2 Day 1, n=14): 0; No. of Pts with DLTS (Phase I dose escalation; Group 4 Level 1b: veliparib 100 mg every 12 h Days 1-14 + cyclophosphamide 600 mg/m^2 + doxorubicin 60 mg/m^2 Day 1, n=13): 0
